Where “and” joins values, the source holds several entries; their conditions need not be identical. Equal values may be shown once.
Legend:
PI3Kδ = target: T1, PI3Kδ (Homo sapiens, UniProt O00329); assay: PI3Kδ kinase assay (HTRF, PIP3 detection); format: biochemical; conditions: for PI3Kδ @ 0.1 μM (% Inh): 0.1 μM compound; for PI3Kδ @ 0.1 μM (% Inh) / PI3Kδ @ 1 μM (% Inh) / PI3Kδ @ 0.01 μM (% Inh): 10 μM ATP; for PI3Kδ @ 1 μM (% Inh): 1 μM compound; for PI3Kδ @ 0.01 μM (% Inh): 0.01 μM compound; for IC50: 10 dose IC50, 10 μM ATP
T1 construct: purchased Reaction Biology Corporation
Excerpt: (§1) Compounds of the invention were profiled in a 10 dose IC50 panel against BTK and PI3Kδ, both provided by Reaction Biology Corporation.
PI3Kδ assay: The PIP3 product is detected by displacement of biotin-PIP3 from an energy transfer complex consisting of Europium labeled anti-GST monoclonal antibody, a GST-tagged pleckstrin homology (PH) domain, biotinylated PIP3 and Streptavidin-Allophycocyanin (APC). […] The PIP3 product formed by PI 3-Kinase(h) activity displaces biotin-PIP3 from the complex resulting in a loss of energy transfer and thus a decrease in signal. This is a 3-step reaction: First, the kinase reaction with PIP2 substrate is carried out in the presence of ATP (10 μM), and the reaction is quenched with stop Solution, and then finally detect by adding Detection Mixture followed by incubation (10 min). Reaction procedure: 1) Prepare substrate in freshly prepared Reaction Buffer. 2) Deliver kinase into the substrate solution and gently mix. 3) Deliver compounds in 100% DMSO (1 μM) into the kinase reaction mixture by Acoustic technology (Echo550; nanoliter range), incubate for 10 min at RT. 4) Deliver ATP into the reaction mixture to initiate the reaction. 5) Incubate for 30 min at 30° C. 6) Quench the reaction with Stop Solution. 7) Add Detection Mixture, and incubate for overnight. […] The emission ratio is converted into μM PIP3 production based on PIP3 standard curves. The nonlinear regression to obtain the standard curve and IC50 values are performed using Graphpad Prism software. Assay Buffer: HEPES 50 mM (pH7.0), NaN3 0.02%, BSA 0.01%, Orthovanadate 0.1 mM, 1% DMSO. Detection buffer: HEPES 10 mM (pH7.0), BSA 0.02%, KF 0.16 M, EDTA 4 mM. Substrate: 10 μM PIP2 substrate (PI(4,5)P2).

BTK = target: T2, BTK (Homo sapiens, UniProt Q06187); assay: BTK kinase assay (HotSpot, 33P ATP); format: biochemical; conditions: for BTK @ 0.1 μM (% Inh): 0.1 μM compound; for BTK @ 0.1 μM (% Inh) / BTK @ 1 μM (% Inh) / BTK @ 0.01 μM (% Inh): 10 μM ATP; for BTK @ 1 μM (% Inh): 1 μM compound; for BTK @ 0.01 μM (% Inh): 0.01 μM compound; for IC50: 10 dose IC50, 10 μM ATP
T2 construct: purchased Reaction Biology Corporation
Method: as §1
BTK assay: In vitro profiling protein kinases was performed using the “HotSpot” assay platform. Briefly, specific kinase/substrate pairs along with required cofactors were prepared in reaction buffer. Compounds were prepared as 10 mM stock solutions in DMSO. Compounds were delivered into the reaction, followed 15-20 minutes later by addition of a mixture of ATP (Sigma, St. Louis Mo.) and ^33P ATP (Perkin Elmer, Waltham Mass.) to a final concentration of 10 μM. […] IC50 values and curve fits were obtained using Prism (GraphPad Software). Buffer Conditions: 20 mM Hepes (pH 7.5), 10 mM MgCl2, 1 mM EGTA, 0.02% Brij35, 0.02 mg/mL BSA, 0.1 mM Na3VO4, 2 mM DTT, 1% DMSO.

T1 sequence (O00329 whole entry): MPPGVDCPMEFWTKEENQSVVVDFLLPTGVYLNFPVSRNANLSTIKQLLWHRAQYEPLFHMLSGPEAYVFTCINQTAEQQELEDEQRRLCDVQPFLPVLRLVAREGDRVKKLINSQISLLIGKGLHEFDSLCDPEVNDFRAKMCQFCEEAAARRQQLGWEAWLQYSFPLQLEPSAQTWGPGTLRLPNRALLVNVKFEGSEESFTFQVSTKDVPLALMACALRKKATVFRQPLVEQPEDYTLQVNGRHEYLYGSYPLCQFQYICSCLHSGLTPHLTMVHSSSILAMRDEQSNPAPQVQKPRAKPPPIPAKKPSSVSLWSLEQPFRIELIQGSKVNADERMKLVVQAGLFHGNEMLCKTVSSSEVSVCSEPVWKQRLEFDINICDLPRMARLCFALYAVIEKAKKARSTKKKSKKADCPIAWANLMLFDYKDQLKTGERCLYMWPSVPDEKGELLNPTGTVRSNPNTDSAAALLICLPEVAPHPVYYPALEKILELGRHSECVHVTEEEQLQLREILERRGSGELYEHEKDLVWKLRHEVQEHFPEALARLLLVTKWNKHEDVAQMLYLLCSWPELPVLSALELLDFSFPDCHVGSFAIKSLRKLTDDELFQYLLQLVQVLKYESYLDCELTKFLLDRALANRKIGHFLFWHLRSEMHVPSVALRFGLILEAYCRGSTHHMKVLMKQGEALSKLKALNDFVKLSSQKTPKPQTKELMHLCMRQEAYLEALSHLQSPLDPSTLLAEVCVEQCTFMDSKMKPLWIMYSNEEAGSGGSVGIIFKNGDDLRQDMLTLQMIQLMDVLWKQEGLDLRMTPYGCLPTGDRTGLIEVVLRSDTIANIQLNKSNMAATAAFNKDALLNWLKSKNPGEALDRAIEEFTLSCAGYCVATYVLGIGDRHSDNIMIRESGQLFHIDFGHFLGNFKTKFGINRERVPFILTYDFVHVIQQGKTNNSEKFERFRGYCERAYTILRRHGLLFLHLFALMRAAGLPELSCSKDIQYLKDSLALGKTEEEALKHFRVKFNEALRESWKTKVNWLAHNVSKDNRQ
T1 sequence (P27986 whole entry partner): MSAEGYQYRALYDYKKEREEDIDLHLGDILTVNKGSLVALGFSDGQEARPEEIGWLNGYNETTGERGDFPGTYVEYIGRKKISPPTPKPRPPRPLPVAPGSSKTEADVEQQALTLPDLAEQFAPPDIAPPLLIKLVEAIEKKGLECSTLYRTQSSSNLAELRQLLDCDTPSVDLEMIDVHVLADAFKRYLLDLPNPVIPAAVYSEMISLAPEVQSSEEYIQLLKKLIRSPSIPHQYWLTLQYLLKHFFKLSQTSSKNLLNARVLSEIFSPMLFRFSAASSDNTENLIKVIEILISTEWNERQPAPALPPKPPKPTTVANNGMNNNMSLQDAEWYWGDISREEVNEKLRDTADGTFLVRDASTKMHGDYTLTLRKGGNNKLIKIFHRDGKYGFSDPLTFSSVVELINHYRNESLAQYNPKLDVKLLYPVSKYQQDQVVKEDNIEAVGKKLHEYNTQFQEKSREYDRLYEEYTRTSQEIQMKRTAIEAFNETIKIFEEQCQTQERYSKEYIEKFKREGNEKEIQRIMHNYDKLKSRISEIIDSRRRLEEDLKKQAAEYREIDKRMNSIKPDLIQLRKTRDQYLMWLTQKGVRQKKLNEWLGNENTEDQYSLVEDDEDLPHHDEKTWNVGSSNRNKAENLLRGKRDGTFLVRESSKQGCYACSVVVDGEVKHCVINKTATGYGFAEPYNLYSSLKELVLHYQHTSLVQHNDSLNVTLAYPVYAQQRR
T2 sequence (Q06187 whole entry): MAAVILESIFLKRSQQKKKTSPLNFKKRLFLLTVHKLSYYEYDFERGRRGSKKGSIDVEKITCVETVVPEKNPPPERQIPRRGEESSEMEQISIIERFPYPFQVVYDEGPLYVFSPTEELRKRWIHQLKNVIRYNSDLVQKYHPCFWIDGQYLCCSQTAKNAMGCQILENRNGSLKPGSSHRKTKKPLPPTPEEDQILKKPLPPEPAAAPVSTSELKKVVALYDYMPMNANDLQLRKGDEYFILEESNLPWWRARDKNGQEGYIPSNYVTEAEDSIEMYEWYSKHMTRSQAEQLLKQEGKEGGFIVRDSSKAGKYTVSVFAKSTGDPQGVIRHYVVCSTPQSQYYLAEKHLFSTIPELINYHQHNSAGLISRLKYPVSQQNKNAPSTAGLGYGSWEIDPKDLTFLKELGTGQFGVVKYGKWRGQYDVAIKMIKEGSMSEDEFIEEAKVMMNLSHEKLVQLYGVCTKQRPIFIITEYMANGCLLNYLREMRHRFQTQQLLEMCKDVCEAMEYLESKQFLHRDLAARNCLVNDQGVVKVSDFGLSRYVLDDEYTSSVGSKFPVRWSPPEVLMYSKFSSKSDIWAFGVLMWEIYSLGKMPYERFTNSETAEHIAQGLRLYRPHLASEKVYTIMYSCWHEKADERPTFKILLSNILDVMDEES

Row | SMILES | PI3Kδ @ 0.1 μM (% Inh) (PI3Kδ) | PI3Kδ @ 1 μM (% Inh) (PI3Kδ) | BTK @ 0.1 μM (% Inh) (BTK) | BTK @ 1 μM (% Inh) (BTK) | PI3Kδ @ 0.01 μM (% Inh) (PI3Kδ) | BTK @ 0.01 μM (% Inh) (BTK) | IC50 (PI3Kδ) | IC50 (BTK)
1 | Cc1nc2ccc(-c3nn(C4Cc5ccccc5C4)c4ncnc(N)c34)cc2[nH]1 [Compound No. 82, 1-(2,3-dihydro-1H-inden-2-yl)-3-(2-methyl-1H-1,3-benzodiazol-6-yl)-1H-pyrazolo[3,4-d]pyrimidin-4-amine] | 41.76 % Inh | 82.95 % Inh | 11.64 % Inh | 30.18 % Inh |  |  |  | 
2 | COc1ccc(-c2nn(C3Cc4ccccc4C3)c3ncnc(N)c23)c(OC)c1OC [Compound No. 83, 1-(2,3-dihydro-1H-inden-2-yl)-3-(2,3,4-trimethoxyphenyl)-1H-pyrazolo[3,4-d]pyrimidin-4-amine] | −5.17 % Inh | 13.54 % Inh | 10.79 % Inh | 18.4 % Inh |  |  |  | 
3 | Nc1ncnc2c1c(-c1cc(F)c(F)c(F)c1)nn2C1Cc2ccccc2C1 [Compound No. 86, 1-(2,3-dihydro-1H-inden-2-yl)-3-(3,4,5-trifluorophenyl)-1H-pyrazolo[3,4-d]pyrimidin-4-amine] | 20.84 % Inh |  | 21.34 % Inh |  | 17.21 % Inh | 8.08 % Inh |  | 
4 | Nc1cc(-c2nn(C3Cc4ccccc4C3)c3ncnc(N)c23)ccc1F [Compound No. 87, 3-(3-amino-4-fluorophenyl)-1-(2,3-dihydro-1H-inden-2-yl)-1H-pyrazolo[3,4-d]pyrimidin-4-amine] | 8.16 % Inh |  | 78.95 % Inh |  | 13.47 % Inh | 34.28 % Inh |  | 
5 | Nc1ncnc2c1c(-c1cccc(F)c1)nn2C1Cc2ccccc2C1 [Compound No. 88, 1-(2,3-dihydro-1H-inden-2-yl)-3-(3-fluorophenyl)-1H-pyrazolo[3,4-d]pyrimidin-4-amine] | 15.89 % Inh |  | 17.55 % Inh |  | 18.98 % Inh | 7.67 % Inh |  | 
6 | Nc1ncnc2c1c(-c1ccc(F)c(F)c1)nn2C1Cc2ccccc2C1 [Compound No. 89, 3-(3,4-difluorophenyl)-1-(2,3-dihydro-1H-inden-2-yl)-1H-pyrazolo[3,4-d]pyrimidin-4-amine] | 17.95 % Inh |  | 30.58 % Inh |  | 0.76 % Inh | 8.84 % Inh |  | 
7 | CCCCOc1cc(-c2nn(C3Cc4ccccc4C3)c3ncnc(N)c23)ccc1OC [Compound No. 90, 3-(3-butoxy-4-methoxyphenyl)-1-(2,3-dihydro-1H-inden-2-yl)-1H-pyrazolo[3,4-d]pyrimidin-4-amine] | 44.39 % Inh |  | 6.79 % Inh |  | 9.23 % Inh | 7.39 % Inh |  | 
8 | COc1cc(-c2nn(C3Cc4ccccc4C3)c3ncnc(N)c23)cc(F)c1F [Compound No. 91, 3-(3,4-difluoro-5-methoxyphenyl)-1-(2,3-dihydro-1H-inden-2-yl)-1H-pyrazolo[3,4-d]pyrimidin-4-amine] | 19.59 % Inh |  | 33.72 % Inh |  | −1.19 % Inh | 8 % Inh |  | 
9 | COc1cc(-c2nn(C3Cc4ccccc4C3)c3ncnc(N)c23)cc(C(F)(F)F)c1F [Compound No. 92, 1-(2,3-dihydro-1H-inden-2-yl)-3-[4-fluoro-3-methoxy-5-(trifluoromethyl)phenyl]-1H-pyrazolo[3,4-d]pyrimidin-4-amine] | 9.31 % Inh |  | 3.3 % Inh |  | 11.71 % Inh | 1.24 % Inh |  | 
10 | N#Cc1ccc(-c2nn(C3Cc4ccccc4C3)c3ncnc(N)c23)cc1O [Compound No. 94, 4-[4-amino-1-(2,3-dihydro-1H-inden-2-yl)-1H-pyrazolo[3,4-d]pyrimidin-3-yl]-2-hydroxybenzonitrile] | 71.5 % Inh |  | 22.48 % Inh |  | 29.77 % Inh | 8.16 % Inh |  | 
11 | COc1c(Cl)ccc(-c2nn(C3Cc4ccccc4C3)c3ncnc(N)c23)c1Cl [Compound No. 95, 3-(2,4-dichloro-3-methoxyphenyl)-1-(2,3-dihydro-1H-inden-2-yl)-1H-pyrazolo[3,4-d]pyrimidin-4-amine] | 25.54 % Inh |  | 11.01 % Inh |  | 3.09 % Inh | 7 % Inh |  | 
12 | Nc1ccc(-c2nn(C3Cc4ccccc4C3)c3ncnc(N)c23)cn1 [Compound No. 96, 5-[4-amino-1-(2,3-dihydro-1H-inden-2-yl)-1H-pyrazolo[3,4-d]pyrimidin-3-yl]pyridin-2-amine] | 40.18 % Inh |  | 12.19 % Inh |  | 32.92 % Inh | 7.68 % Inh |  | 
13 | N#Cc1cc(-c2nn(C3Cc4ccccc4C3)c3ncnc(N)c23)ccc1F [Compound No. 97, 5-[4-amino-1-(2,3-dihydro-1H-inden-2-yl)-1H-pyrazolo[3,4-d]pyrimidin-3-yl]-2-fluorobenzonitrile] | 29.59 % Inh |  | 14.06 % Inh |  | 24.66 % Inh | 11.7 % Inh |  | 
14 | Cn1ncc2c(-c3nn(C4Cc5ccccc5C4)c4ncnc(N)c34)cccc21 [Compound No. 98, 1-(2,3-dihydro-1H-inden-2-yl)-3-(1-methyl-1H-indazol-4-yl)-1H-pyrazolo[3,4-d]pyrimidin-4-amine] | 19.14 % Inh |  | 12.62 % Inh |  | 14.09 % Inh | 8.24 % Inh |  | 
15 | Nc1ncnc2c1c(-c1ccc3c(c1)NCCO3)nn2C1Cc2ccccc2C1 [Compound No. 99, 1-(2,3-dihydro-1H-inden-2-yl)-3-(3,4-dihydro-2H-1,4-benzoxazin-6-yl)-1H-pyrazolo[3,4-d]pyrimidin-4-amine] | 39.74 % Inh |  | 56.81 % Inh |  | 17.4 % Inh | 17.69 % Inh | 167 nM | 79.6 nM
16 | Nc1ncnc2c1c(-c1ccc(O)c(O)c1)nn2C1CCc2ccccc2C1 (stereo not drawn) [compound 1, 4-(4-amino-1-tetralin-2-yl-pyrazolo[3,4-d]pyrimidin-3-yl)benzene-1,2-diol] | 48.6 % Inh |  | 12.61 % Inh |  |  |  |  | 
17 | COc1cc(F)cc(-c2nn(C3CCc4ccccc43)c3ncnc(N)c23)c1 (stereo not drawn) [compound 4, 1-(2,3-dihydro-1H-inden-1-yl)-3-(3-fluoro-5-methoxyphenyl)-1H-pyrazolo[3,4-d]pyrimidin-4-amine] |  |  |  |  |  |  | 1830 nM | 584 nM
18 | COc1cc(F)cc(-c2nn(C3Cc4ccccc4C3)c3ncnc(N)c23)c1 [compound 5, 1-(2,3-dihydro-1H-inden-2-yl)-3-(3-fluoro-5-methoxyphenyl)-1H-pyrazolo[3,4-d]pyrimidin-4-amine] | 25.0 % Inh | 54.63 % Inh | 26.26 % Inh | 76.16 % Inh |  |  | 2790 nM and 1220 nM | 1970 nM and 1100 nM

From patent publication US20210317140A1, “Heterocyclic Compounds and Methods of Use” (MEDIVATION TECHNOLOGIES, INC, priority 2013, published 2021)
